Patent US20260297542A1, “HERBICIDE RESISTANT PLANTS” (SYNGENTA CROP PROTECTION AG, priority 2023, published 2026)
Substitutions are numbered along the chain they refer to.

Legend:
Test in all cases: E. coli hemG growth inhibition by herbicide, AtPPO1 variant
Format in all cases: cell-based
Conditions in all cases: read-out: percentage growth inhibition
AtPPO1 Q272H = target: T1, AtPPO1 Q272H (Arabidopsis thaliana, UniProt P55826, Q272H)
T1 construct: expressed in transfected cells; host or cells: E. coli BL21(DE3) hemG (hemG replaced by CmR), pET24a plasmid
T1 sequence (P55826 35-537 Q272H): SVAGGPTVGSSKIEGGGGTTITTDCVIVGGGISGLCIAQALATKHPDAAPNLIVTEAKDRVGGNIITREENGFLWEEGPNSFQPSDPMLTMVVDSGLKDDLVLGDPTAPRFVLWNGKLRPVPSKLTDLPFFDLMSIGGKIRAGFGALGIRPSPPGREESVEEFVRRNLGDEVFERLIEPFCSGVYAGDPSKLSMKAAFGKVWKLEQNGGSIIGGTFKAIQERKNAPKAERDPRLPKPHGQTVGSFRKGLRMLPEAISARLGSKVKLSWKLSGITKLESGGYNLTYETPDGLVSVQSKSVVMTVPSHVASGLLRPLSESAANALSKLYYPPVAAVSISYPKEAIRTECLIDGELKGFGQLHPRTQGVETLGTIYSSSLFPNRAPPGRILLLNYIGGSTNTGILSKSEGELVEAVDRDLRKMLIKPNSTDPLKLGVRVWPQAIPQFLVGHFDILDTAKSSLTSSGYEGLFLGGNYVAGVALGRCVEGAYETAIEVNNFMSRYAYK
Procedure, shortened: (§1)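 AtPPO1 variants from a site-saturation library, codon-optimised and T7-driven in pET24a, were expressed in E. coli BL21(DE3) lacking hemG (hemG replaced by CmR). Growth in Terrific broth with 0.1 mM IPTG plus 6.25 ppm herbicide 0 or E, 0.78 ppm herbicide B, or DMSO was read as OD600 after 24 h at 37° C; inhibition was calculated against the DMSO culture.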

AtPPO1 G510N = target: T2, AtPPO1 G510N (Arabidopsis thaliana, UniProt P55826, G510N)
T2 construct: expressed in transfected cells; host or cells: E. coli BL21(DE3) hemG, pET24a plasmid
T2 sequence (P55826 35-537 G510N): T1 sequence (P55826 35-537 Q272H) with H238Q, G476N
Procedure, shortened: as §1

AtPPO1 T461Q = target: T3, AtPPO1 T461Q (Arabidopsis thaliana, UniProt P55826, T461Q)
T3 construct: expressed in transfected cells; host or cells: E. coli BL21(DE3) hemG, pET24a plasmid
T3 sequence (P55826 35-537 T461Q): T1 sequence (P55826 35-537 Q272H) with H238Q, T427Q
Procedure, shortened: as §1

AtPPO1 D448N = target: T4, AtPPO1 D448N (Arabidopsis thaliana, UniProt P55826, D448N)
T4 construct: expressed in transfected cells; host or cells: E. coli BL21(DE3) hemG, pET24a plasmid
T4 sequence (P55826 35-537 D448N): T1 sequence (P55826 35-537 Q272H) with H238Q, D414N
Procedure, shortened: as §1

| Compound | inhibition at 6.25 ppm (AtPPO1 Q272H) | inhibition at 6.25 ppm (AtPPO1 G510N) | inhibition at 6.25 ppm (AtPPO1 T461Q) | inhibition at 6.25 ppm (AtPPO1 D448N) | inhibition at 0.78 ppm (AtPPO1 Q272H) | inhibition at 0.78 ppm (AtPPO1 G510N) | inhibition at 0.78 ppm (AtPPO1 T461Q) | inhibition at 0.78 ppm (AtPPO1 D448N) |
| --- | --- | --- | --- | --- | --- | --- | --- | --- |
| CCOC(=O)[C@]1(C)CC(c2cc(-n3c(=O)n(C)c(=S)n(C)c3=O)c(F)cc2Cl)=NO1 [Herbicide D, ethyl (5S)-3-[2-chloro-5-(3,5-dimethyl-2,6-dioxo-4-thioxo-1,3,5-triazinan-1-yl)-4-fluoro-phenyl]-5-methyl-4H-isoxazole-5-carboxylate] | 28% | 31% | 22% | 38% | – | – | – | – |
| C#CCN1C(=O)C(F)(F)Oc2cc(F)c(-n3c(=O)n(C)c(=S)n(C)c3=O)cc21 [Herbicide B, trifludimoxazin] | – | – | – | – | 27% | 24% | 31% | 40% |
| CC(C)N(C)S(=O)(=O)NC(=O)c1cc(-n2c(=O)cc(C(F)(F)F)n(C)c2=O)c(F)cc1Cl [Herbicide E, saflufenacil] | 64% | 70% | 35% | 63% | – | – | – | – |
